13 compounds from PubChem BioAssay (NCI) can be followed below.

SMILES strings stand for the structures.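 A five-concentration, 48-hour dose response in 96-well plates underlies each endpoint, interpolated linearly between surrounding concentrations. At the GI50, growth is halved. TGI is the concentration that stops growth completely.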 A value given as a limit tells only on which side of the number the result lay.

Common to all, as to experiment: DTP human tumour cell line panel, 48 h
Assay [1] relates to RXF 393 renal.
The subject of assay [2] is SK-MEL-28 melanoma.
Assay [3] deals with SNB-19 CNS.
Assay [4] deals with RPMI-8226 leukemia.
For assay [5], the system named is SNB-75 CNS.
The test system of assay [6] is MALME-3M melanoma.
In assay [7] the test system is UO-31 renal.
The subject of assay [8] is NCI-H460 lung.
Assay [9] concerns T-47D breast.
For assay [10], the system named is HOP-92 NSCLC.

For `CCOCCc1c(O)nc(SC)[nH]c1=O`, the GI50 in [1], in assay [2], in assay [3], in [4], in [5] and in [6] was above 100 µM each time. In addition, the GI50 in [7], in assay [8], in assay [9] and in [10] was above 100 µM throughout. Besides, the TGI in assay [1], in assay [2], in assay [3], in [4], in assay [5] and in assay [6] was above 100 µM in each case. Moreover, the TGI in [7], in assay [8], in assay [9] and in assay [10] was above 100 µM each time.

On to `O=C1Nc2ccccc2C1(c1ccc(O)c(F)c1)c1ccc(O)c(F)c1`, for which the GI50 was 0.969 µM in [1]; 14.4 µM in assay [2]; 19.1 µM in assay [3]; 15.7 µM in [4]; 0.661 µM in assay [5]; 13.7 µM in assay [6]. The GI50 was 11.9 µM in assay [7], 19 µM in [8], 0.226 µM in assay [9] and 2.36 µM in assay [10]. In addition, the concentration for total growth inhibition (TGI) in [1] came out at 10.5 µM; in assay [2], 52 µM; in assay [3] it was 69 µM; in assay [4], 52.6 µM; in assay [5], 36.5 µM; in assay [6], 46.6 µM. The TGI in assay [7] amounted to 42.8 µM; in [8] it was 47.8 µM; in assay [9], 0.622 µM; in assay [10], 16.6 µM.

As for `COc1ccc(/C=C2\N=C(c3ccccc3)N(c3cc(C(F)(F)F)ccc3Cl)C2=O)cc1OC`, the GI50 in assay [1] is 33.5 µM; in assay [2], 46.9 µM; in [3], 46.4 µM; in assay [4], 25.8 µM; in [5], 56.7 µM; in assay [6], 79.7 µM. Further, the GI50 was 48.4 µM in assay [7], 43 µM in [8], above 100 µM in assay [9] and 83.9 µM in assay [10]. Moreover, the TGI in assay [1] is 68.3 µM; in assay [2] it was above 100 µM; in [3], above 100 µM; in assay [4] it was 80.8 µM; in [5], above 100 µM; in [6], above 100 µM. Also, the TGI in [7], in assay [8], in assay [9] and in [10] was above 100 µM in each case.

As for `COc1cc(C(=O)NC2CCN(C)CC2)ccc1Nc1ncc2c(n1)N(C1CCCC1)CC(F)(F)C(=O)N2C`, the GI50 in assay [1] is 0.054 µM; in assay [2], 0.0293 µM; in assay [3] it was 0.0375 µM; in assay [5], 0.0198 µM; in [6], 2.64 µM; in assay [7] it was 1.66 µM. Moreover, the figures for the GI50 in assay [8], in assay [9] and in [10] were below 0.0152 µM, 0.177 µM and 0.1 µM, respectively. Besides, the TGI was determined as 11.8 µM in assay [1]; 12.1 µM in assay [2]; 16.8 µM in assay [3]; 8.33 µM in [4]; 16.1 µM in assay [5]; 10.5 µM in [6]. The TGI was determined as 12.9 µM in assay [7], 11.6 µM in assay [8], 12.6 µM in assay [9] and 1.7 µM in assay [10].

For `CC(=O)Oc1ccc2ccc(=O)oc2c1OC(C)=O`, the total growth inhibition concentration (TGI) in assay [1] is 71.4 µM; in assay [2], above 100 µM; in [3], above 100 µM; in assay [4], above 100 µM; in assay [5] it was above 100 µM; in [6] it was above 100 µM. The total growth inhibition concentration (TGI) in assay [7], in [8], in assay [9] and in assay [10] was above 100 µM each time.

As for `C[N+](C)(C)CCC(=O)N1C/C(=C\c2ccccc2)C(=O)/C(=C/c2ccccc2)C1`, the TGI in assay [1] was determined as 28.3 µM; in assay [2] it was 15.4 µM; in assay [3] it was 12.2 µM; in assay [4] it was 2.3 µM; in assay [5], 24.3 µM; in assay [6], 30.4 µM. Further, the TGI in [7] is 33 µM; in [8], 22.4 µM; in [9] it was 4.41 µM; in assay [10] it was 38.7 µM.

Consider `COc1ccc2c(CC(=O)O)cc(=O)oc2c1`, for which the TGI in assay [1], in assay [2], in [3], in assay [4], in [6] and in [7] was above 100 µM each time. Further, the TGI in [8], in [9] and in [10] was above 100 µM in each case.

As to `C/C(=N\Nc1ccc2ccccc2n1)c1ccccc1O`, the TGI in assay [1] is above 100 µM; in [2], above 100 µM; in assay [3], above 100 µM; in [4] it was above 100 µM; in assay [5] it was 24.7 µM; in assay [6], above 100 µM. Besides, the TGI in assay [7], in assay [8], in assay [9] and in assay [10] was above 100 µM in each case.

For `CC1(C)CC[C@]2(C(=O)n3ccnc3)CC[C@]3(C)[C@H](C(=O)C=C4[C@@]5(C)C=C(C#N)C(=O)C(C)(C)[C@@H]5CC[C@]43C)[C@@H]2C1`, the GI50 in assay [1] is 0.0114 µM; in assay [2], below 0.0155 µM; in assay [4] it was below 0.01 µM; in assay [5] it was 0.0236 µM; in [6], below 0.0111 µM; in assay [7], below 0.0108 µM. The GI50 is below 0.0179 µM in assay [8], 0.0446 µM in assay [9] and 0.0221 µM in assay [10]. Further, the TGI was 0.0536 µM in assay [1]; 0.0848 µM in assay [2]; below 0.01 µM in assay [4]; 0.187 µM in [5]; below 0.0188 µM in assay [6]; below 0.0174 µM in assay [7]. For the same compound, the TGI in [8] was above 100 µM; in [9] it was 0.395 µM; in [10], 0.102 µM.

Turning to `CC1(C)CC(=O)C(C(c2cccc(O)c2O)C2C(=O)CC(C)(C)CC2=O)C(=O)C1`, the TGI in assay [1], in [2], in assay [3], in assay [4], in assay [5] and in assay [6] was above 100 µM throughout. Moreover, the TGI in assay [8], in assay [9] and in assay [10] was above 100 µM in each case.

Regarding `CCCCCCCCCCCCOC1C(CNC(=O)C2OC3OC(C)(C)OC3C2NC(=O)CN2CCN(c3ccccn3)CC2)OC2OC(C)(C)OC21` (centres undefined), the GI50 was 1.36 µM in [1]; 2.53 µM in assay [2]; 2.96 µM in assay [3]; 2.31 µM in assay [5]; 1.88 µM in [6]; 1.42 µM in assay [7]. For the same compound, the GI50 was 1.77 µM in [8], 2.81 µM in assay [9] and 1.7 µM in assay [10]. Besides, the TGI in assay [1] came to 2.74 µM; in assay [2], 7.47 µM; in assay [3] it was 7.99 µM; in assay [5] it was 6.77 µM; in assay [6] it was 3.86 µM; in [7], 2.72 µM. The figures for the TGI in [8], in [9] and in assay [10] were 3.38 µM, 8.61 µM and 3.18 µM, respectively.

Regarding `COc1ccc(-c2cn(-c3ccc(Cl)cc3)c(=S)[nH]2)cc1OC`, the GI50 is 2.98 µM in assay [1]; 22.3 µM in assay [2]; 4.43 µM in assay [4]; 16.4 µM in [5]; 68.4 µM in assay [6]; 39.6 µM in [7]. The GI50 in assay [8] was 3.92 µM; in assay [9] it was 6.09 µM; in assay [10], 0.333 µM. Besides, the TGI is above 100 µM in [1]; above 100 µM in assay [2]; 92.3 µM in [4]; 60.3 µM in assay [5]; above 100 µM in assay [6]; above 100 µM in assay [7]. Besides, the results for the TGI in [8], in assay [9] and in assay [10] were above 100 µM, above 100 µM and 7.63 µM, respectively.

`COC1OCC(OS(=O)(=O)c2ccc(C)cc2)C(OC(=O)c2ccccc2)C1OC(=O)c1ccccc1` (centres undefined): the GI50 in assay [1] is 4.62 µM; in [2], 4.62 µM; in assay [3], 9.97 µM; in assay [5], 1.78 µM; in assay [6] it was 13.7 µM; in assay [7], above 100 µM. The results for the GI50 in assay [8], in assay [9] and in [10] were 3.87 µM, 3.11 µM and 2.48 µM, respectively. In addition, the TGI in assay [1] was above 100 µM; in assay [2] it was above 100 µM; in assay [3] it was above 100 µM; in assay [5] it was 4.65 µM; in [6] it was above 100 µM; in assay [7], above 100 µM. Further, the TGI in assay [8], in assay [9] and in assay [10] was above 100 µM in each case.
